Tests used:
Format in all cases: cell-based
[1] = test system: p73-luciferase or cyclinE-luciferase; assay: Reporter assay with E2F-responsive promoters; settings: U2OS cells, PRMT5 vs control siRNA, 48 h
Experimental: To further explore the role of arginine methylation in the transcription properties of E2F-1, wild-type E2F-1 was compared with the KK and KKK mutants in a reporter-based transfection assay, using E2F-responsive promoters derived from E2F target genes. The assay was performed under conditions in which each mutant protein was expressed at an equivalent level to wild-type E2F-1 (FIG. 4aii and bii), thus ruling out any difference in activity that could be attributed to protein levels. […] FIGS. 4a and b show the transcription properties of wild-type E2F-1, KK and KKK mutants. U2OS cells were transfected with expression vectors encoding WT or mutant E2F-1 protein, together with p73-luciferase (A) or cyclinE-luciferase (B) for 48 h as indicated, and pCMV-βgal to monitor transfection efficiency. Relative luciferase activity (luciferase/βgal) is shown together with expression level of ectopic proteins; n=3. […] PRMT5 (P) or control (C) non-targeting siRNA was transfected into U2OS cells together with p73-luciferase (i) or cyclinE-luciferase (ii) for 48 h, together with pCMV-βgal to monitor transfection efficiency. Relative luciferase activity is shown together with expression level of the ectopic proteins.
Cells were transfected with expression vectors (1 μg) encoding WT or the mutant E2F-1 proteins as indicated with E2F responsive luciferase reporters, namely p73-luciferase or cyclinE-luciferase, together with pCMV-βgal to monitor transfection efficiency. Cells were harvested, lysed 48 h post-transfection and luciferase activity measured as previously described (Janson et al 2008).

U2OS cells = assay: Apoptosis (sub-G1) by FACS in U2OS cells; settings: n=3
Experimental: Whether arginine methylation influences E2F-1-dependent apoptosis was investigated by comparing the ability of wild-type E2F-1 to the KK and KKK mutants to induce cells with a sub-G1 DNA content (Stevens et al 2003). […] U2OS cells were transfected with expression vectors encoding wild-type E2F-1, KK and KKK as indicated for 48 h and analysed by FACS as described. The graph represents the relative change in sub-G1 populations compared to the empty vector control treatment; n=2.
(§1) The graph (i) represents the relative number of sub-G I cells (compared to the control treatment) in the indicated conditions; and (ii) the level of PRMT5 and E2F-1; n=3.
(§2) PRMT5 (P) or control (C) non-targeting siRNA (25 nM) was transfected into HCT116 p53+/+ (i), HCT116 p53−/− (ii) or U2OS (iii) cells and the cells were harvested 72 h post-transfection and analysed by FACS. The graph represents the actual number of sub-G1 cells in the indicated conditions, and the immunoblot the level of PRMT5 and actin control; n=3.
PRMT5 (P), E2F-1 (E) or control (C) non-targeting siRNA was transfected into U2OS cells and harvested 72 h post-transfection and analysed by FACS as described.
(§3) Cells were transfected with the indicated expression vectors together with pBB14-GFP (for 48 h) to monitor transfection efficiency or siRNA (for 48 h or 72 h) with or without treatment of the DNA damage agent for the last 16 h. Then, cells were fixed and stained with propidium iodide and analyzed by Flow Cytometry.

C33A cells = assay: Apoptosis upon PRMT5 depletion in C33A cells; settings: PRMT5 vs control siRNA
Experimental: as §1
Cleaved PARP is indicated by the arrow.
as §3

HCT116 p53+/+ = assay: Apoptosis (sub-G1) by FACS in HCT116 p53+/+ cells; settings: siRNA 25 nM, 72 h, n=3
Experimental: as §2, §3

HCT116 p53−/− = assay: Apoptosis (sub-G1) by FACS in HCT116 p53−/− cells; settings: siRNA 25 nM, 72 h, n=3
Experimental: as §2, §3

SAOS2 = assay: Apoptosis (sub-G1) by FACS in SAOS2 cells with ectopic E2F-1; settings: SAOS2 with wild-type E2F-1 expression vector 1 μg, 72 h; n=3
Experimental: PRMT5 (P) or control (C) non-targeting siRNA was transfected into SAOS2 together with an expression vector encoding wild-type E2F-1 (1 μg) as indicated, harvested at 72 h and processed as described in (a); n=3. […] This is consistent with the idea that PRMT5 mediates its effects through E2F-1.
as §3

MEFs = assay: Apoptosis by FACS in MEFs; settings: MEFs (normal non-cancer cells), 72 h; n=3
Experimental: PRMT5 (P) or control (C) non-targeting siRNA was transfected into MEFs and cells harvested at 72 h post-transfection as indicated. Cell extracts were immunoblotted with anti-PRMT5 and anti-E2F-1. Actin levels served as the loading control.
MEFs were treated as described in 6c and thereafter analysed by FACS. In FIG. 6d the black bar represents the effect of C siRNA, and clear bar the effect of P siRNA; n=3.
as §3

PRMT5 [2] = assay: PRMT5 depletion by siRNA in U2OS cells, E2F-1 and E2F target gene levels
From the text: The depletion of PRMT5 co-incided with increased levels of E2F-1 protein (FIG. 3c), which is compatible with the increased level and stability of the KK and KKK mutants (FIG. 3b). […] Extracts were immunoblotted with anti-PRMT5 and E2F-1, and GAPDH levels served as a loading control.
Further, E2F-1 RNA was higher under conditions of PRMT5 depletion, contrasting with the control siRNA treatment. […] RNA was extracted from cells treated as described above, and RNA levels of E2F-1 examined. RNA levels of 18S and GAPDH served as controls. […] Extracts were immunoblotted with anti-PRMT5, E2F-1, p73, Chk2, Chk1 and Cdc2 as indicated. Levels of GAPDH served as the loading control.
FIGS. 6f and 6g address the role of one of the key E2F target genes in the PRMT5 dependent apoptosis, i.e. p73. […] PRMT5 (P) or control (C) siRNA was transfected into U2OS cells and cells harvested at 72 h post-transfection. Both RNA (i) and protein (ii) levels were measured, as indicated, for p73, 18S and GAPDH (i) and PRMT5, E2F-1, p73 and GAPDH (ii). […] This experiment supports activation of the E2F1 pathway leading to apoptosis upon PRMT5 knockdown, i.e. PRMT5 normally acts to suppress activation of the pathway.
Oligofectamine transfection reagent (Invitrogen) was used to transfect cells with siRNAs for 72 h. siRNA treatment of cells was carried out using siRNA non-targeting (Dharmacon) as control or PRMT5 (5′ […] (SEQ ID NO:1)). p73 smart pool siRNA was from Dharmacon. siRNA treatment was for 72 h at 50 nM.

PRMT5 [3] = molecular target: PRMT5 (Homo sapiens, UniProt O14744); assay: Ubiquitination assay in U2OS cells after siRNA; set-up: The indicated GST proteins were incubated with U2OS cell lysate; endogenous in cells; host or cells: U2OS; settings: PRMT5 vs control siRNA, MG132 20 nM 4 h
Experimental: U2OS cells were transfected with PRMT5 (P) or control (C) siRNA. After 24 h, cells were transfected with expression vectors encoding wild-type (WT) E2F-1 or the KKK mutant (2 μg) and His 6-ubiquitin (4 μg) as indicated. Cells were treated with MG132 ([…]) for 4 h before being collected. Cell lysates and Ni2+ pull-down eluates were analysed as described. Quantitation of ubiquitin signals was performed using ImageJ 1.43u, and the input protein levels are shown underneath.
Cells were transfected with pcDNA3.1a-ubiquitin (His-tagged) and treated as described. Briefly cells were harvested into 8 M urea, 0.1 M Na2HPO4/NaH2PO4, 0.01 M Tris-HCl, and pH 8.0. Cell lysate was incubated with nickel (Ni^2+-NTA)-agarose beads (Qiagen), 5 mM imidazole and 10 mM β-mercapthoethanol overnight at 4° C. The beads were collected and washed as described (Liu and Warbrick, 2006). Bound proteins were then eluted and assayed by immunoblotting.

Chain of PRMT5 (Homo sapiens, UniProt O14744) (O14744 whole entry): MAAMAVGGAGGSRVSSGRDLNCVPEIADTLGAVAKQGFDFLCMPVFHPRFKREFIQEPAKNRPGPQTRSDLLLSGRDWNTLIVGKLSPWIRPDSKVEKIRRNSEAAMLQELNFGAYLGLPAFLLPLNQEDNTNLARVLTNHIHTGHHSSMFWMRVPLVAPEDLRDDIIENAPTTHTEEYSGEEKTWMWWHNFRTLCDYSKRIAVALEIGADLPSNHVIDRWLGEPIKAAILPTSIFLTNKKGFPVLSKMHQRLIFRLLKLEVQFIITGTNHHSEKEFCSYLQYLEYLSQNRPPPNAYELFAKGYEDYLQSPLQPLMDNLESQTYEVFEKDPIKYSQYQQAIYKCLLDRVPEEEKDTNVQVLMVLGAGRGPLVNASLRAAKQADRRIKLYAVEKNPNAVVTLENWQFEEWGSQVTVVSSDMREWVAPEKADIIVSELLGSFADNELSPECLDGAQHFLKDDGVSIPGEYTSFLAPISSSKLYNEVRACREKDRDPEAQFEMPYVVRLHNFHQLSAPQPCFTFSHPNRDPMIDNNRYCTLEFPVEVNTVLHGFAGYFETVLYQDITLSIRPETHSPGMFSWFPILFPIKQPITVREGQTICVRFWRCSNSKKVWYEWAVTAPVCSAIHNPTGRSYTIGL

activity of E2F-1 responsive promoters [1]: more active
E2F-1 ubiquitination (PRMT5 [3]): affects the ubiquitination of E2F-1
Substance: 5′ CCGCUAUUGCACCUUGGAA (SEQ ID NO:1) [PRMT5 siRNA]
apoptosis (sub-G1 cells) (U2OS cells; U2OS cells, 72 h post-transfection, with or without etoposide 10 μM 16 h): increased level of apoptosis
apoptosis (% sub-G1 cells) (U2OS cells; U2OS, siRNA 25 nM, 72 h): induces apoptosis
apoptosis (C33A cells): increased level of apoptosis
apoptosis (% sub-G1 cells) (HCT116 p53+/+): induces apoptosis
apoptosis (% sub-G1 cells) (HCT116 p53−/−): induces apoptosis
apoptosis (SAOS2): enhanced levels of apoptosis
apoptosis (MEFs): no apoptosis
E2F-1 protein levels (PRMT5 [2]; 72 h, with or without etoposide 10 μM): increases E2F-1 protein levels
protein levels of E2F target genes (p73, Chk1, Chk2, Cdc2) (PRMT5 [2]; 72 h, with or without etoposide or doxorubicin): induced
p73 RNA and protein levels (PRMT5 [2]; 72 h post-transfection): upregulated
E2F-1 RNA levels (PRMT5 [2]; contrasting with control siRNA): higher

From patent publication US8841274B2, “Protein arginine N-methyltransferase-5 method of cancer treatment” (priority 2009, dated 2014)
